Test [1] concerns Limulus polyphemus ceramidase. The test is described as follows: Ceramidase activity of Limulus polyphemus serum / purified ceramidase on ceramide substrates. It is filed as biochemical. As for the experimental part:
A 10 μl of serum obtained by centrifugation of Limulus polyphemus blood was allowed to undergo 18 hours of reaction at 37° C. with 10 μl of 50 mM acetate buffer (pH 5.0) containing 1 nmol of NBD ceramide prepared in Example 21 and 0.5% Triton X-100. After completion of the reaction, the reaction solution was developed on thin layer chromatography (developing solvent: chloroform/methanol/25% liquid ammonia=90/20/0.5 by volume) and detected under an ultraviolet ray lamp.
In order to confirm that the ceramidase activity found in the Limulus polyphemus serum is really a ceramidase-derived activity, the ceramidase was purified to find that it was an acidic ceramidase having an optimum pH of 4.5 and a molecular weight of about 205 kDa when measured by a gel filtration method.

For another test, the system named is ceramidase in B16 cells. Kind of test: Measurement of ceramidase activity in B16 cells with labeled ceramide substrates. The format is biochemical. The following applies: B16 cell suspension, 50 μg protein, 0.5% Triton X-100, 37° C. 3 or 6 hours; FIG. 16. As for the experimental part:
Measurement of ceramidase activity in B16 cells using radioisotope labeled ^14C ceramide (C12−^14C-Cer) and fluorescent sphingolipid derivative NBD ceramide (C12-NBD-Cer) as the substrate:
A cell suspension was prepared by suspending 6×10^6 of B16 cells in 200 μl of 10 mM phosphate buffer. The amount of the protein was determined using MicroBCA™ protein assay reagent (manufactured by Pierce).
Under acidic condition in 10 μl of 50 MM acetate buffer (pH 4.0) containing 10 μl of the cell suspension (diluted to a protein content of 50 μg), 200 pmol of C12-NBD-Cer obtained in Example 21 or 100 pmol of C12−^14C-Cer obtained using lauric acid instead of palmitic acid used in Example 20, as the substrate, and 0.5% Triton X-100. […]
Each of the samples was developed on thin layer chromatography (developing solvent, chloroform/methanol/25% liquid ammonia =90/20/0.5 by volume), and the released ^14C fatty acid was determined using BAS 1000 Imaging Analyzer (manufactured by Fuji Photo Film) to calculate the reaction ratio. Also, the released NBD fatty acid was determined using Chromatoscanner CS 9000 (manufactured by Shimadzu Corporation), and the reaction ratio was calculated.

Another test deals with SCDase. Kind of test: Substrate specificity (hydrolysis) of purified SCDase from Pseudomonas sp. TK-4. The format is biochemical. The following applies: 10 nmol sphingolipid, 2 milliunits enzyme, 37° C. 16 h, 20 mM sodium acetate buffer pH 5.0, 0.8% Triton X-100, TLC. As for the experimental part:
The enzyme activity of the SCDase is assayed in the following manner. To 10 μl of a substrate solution [50 mM acetate buffer solution (pH 6.0) containing 2 mM of asialo GM1 and 0.6% (w/v) of Triton X-100] is added 10 μl of an enzyme solution. After reacting at 37° C. for 30 minutes, the enzyme reaction is ceased by heating the mixture to 100° C. for 3 minutes. Then the reaction mixture is concentrated to dryness with a centrifugal concentrator. Then the obtained concentrate is dissolved in 10 μl of 50% methanol and placed on a TLC plate (silica gel 60; manufactured by Merck & Co., Inc.). After developing with chloroform/methanol/0.02% aqueous solution of CaCl2 (5/4/1 by volume), the sphingolipid is subjected to color development by the orcinol-sulfuric acid method. […] This spot is determined by using a TLC chromatoscanner (Shimadzu CS-9000, manufactured by Shimadzu Corporation) at a wavelength of 540 nm.
Sphingolipids (10 nmol each) were incubated at 37° C. for 16 h with 2 milliunits of the enzyme in 20 μl of 20 mM sodium acetate buffer, pH 5.0, containing 0.8% Triton X-100. The extent of hydrolysis was examined by TLC and calculated.

The next test deals with crude SCDase. The test is described as follows: Substrate specificity of crude SCDase (culture supernatant) from Shewanella alga NS-589. The format is biochemical. The following applies: SCDase produced by Shewanella alga NS-589. An excerpt:
Acting on acidic glycolipids (GM1, GM2, GD1a, GD1b, sialosyl paragloboside, etc.), neutral glycolipids (lactosyl ceramide, Gb4, Gb5, etc.), sulfated glycolipids (sulfatide, etc.) and sphingomyelin which is a sphingophospholipid, thus forming the corresponding lysosphingolipid and fatty acid in each case.
The substrate specificity was examined as follows. Shewanella alga NS-589 was inoculated into a synthetic medium (dipotassium hydrogenphosphate 0.05%, ammonium chloride 0.05%, sphingomyelin 0.1%, sodium taurodeoxycholate 0.1%, sodium chloride 2%, 2,6-O-dimethyl-β-cyclodextrin 0.1%; pH 7.4). Two days after shaking cultivation at 30° C., the strain was removed to obtain a supernatant by centrifuge. A 50 mM acetate buffer ([…]; pH 6.0) containing 3 μl of the supernatant and 1.6% Triton X-100 was allowed to react with 5 μl of 1.2 mM of each of sphingolipids shown in Table 2 at 37° C. for 16 hours, and then the resulting mixture was analyzed with a thin layer chromatography.
The digestion ratios of various substrates by a crude SCDase obtained from Shewanella alga NS-589.

Another test deals with Shewanella alga NS-589. The test is described as follows: Conversion of sphingomyelin into sphingosylphosphorylcholine by culture of Shewanella alga NS-589. It is filed as cell-based. The following applies: synthetic medium, sphingomyelin 0.1%, 30° C. shaking 2 days, TLC. As for the experimental part: Shewanella alga NS-589 was inoculated into 200 ml of a synthetic medium (dipotassium hydrogenphosphate 0.05%, ammonium chloride 0.05%, sphingomyelin 0.1%, sodium taurodeoxycholate 0.1%, sodium chloride 2%, 2,6-O-dimethyl-β-cyclodextrin 0.1%; pH 7.4) and incubated therein at 30° C. under shaking for 2 days.
Then the cells were eliminated by centrifuging the culture medium to obtain the culture supernatant which was then analyzed by thin layer chromatography. […] This culture medium was added to a C18 reversed phase column [Preoperative C18 125A (manufactured by Millipore), packing: 30 g, column diameter: 30 mm, open column]. After desalting and washing with 300 ml of water, the column was eluted with 300 ml of methanol and 300 ml of chloroform/methanol=1/1 (by volume). Then the sphingosylphosphorylcholine was eluted into the methanol fraction. After removing the solvent in the sphingosylphosphorylcholine fraction with a rotary evaporator, the residue was added to a silica gel 60 column (manufactured by Merck) and fractionated with chloroform/methanol/water=5/4/1 (by volume). Further, the solvent in the sphingosylphosphorylcholine fraction thus obtained was removed with a rotary evaporator and the residue was freeze-dried. Thus 47.6 mg of purified sphingosylphosphorylcholine could be obtained.

Test [2] deals with SCDase derived from the genus Pseudomonas. The test is described as follows: Fatty acid exchange reaction on various acceptors by SCDase. It is filed as biochemical. Conditions: 1 nmol [1-14C] stearic acid, 1 nmol sphingolipid, 30 μU SCDase, acetate buffer pH 6.0, 0.8% Triton X-100, overnight 37° C., galactosyl ceramide = 100. As for the experimental part:
A 10 μl portion of 50 mM acetate buffer (pH 6.0) containing 1 nmol [1−^14C] stearic acid, 1 nmol sphingolipid, 0.8% Triton X-100 and 30 μU SCDase derived from the genus Pseudomonas was allowed to react overnight at 37° C.
The thus obtained reaction solution was developed on thin layer chromatography and exposed to an imaging plate to carry out determination of the reaction product by BAS 1000 Imaging Analyzer (manufactured by Fuji Photo Film).

Regarding `CCCCCCCCCCCCC/C=C/[C@@H](O)[C@H](CO)NC(=O)CCCCCCCCCCCNc1ccc([N+](=O)[O-])c2nonc12` [NBD ceramide], the “Hydrolysis of substrate by Limulus polyphemus serum (ceramidase activity)” value in test [1] (1 nmol substrate, 10 μl serum, acetate buffer pH 5.0, 0.5% Triton X-100, 18 hours 37° C., TLC under UV) is recorded as “a newly formed NBD aminododecanoic acid was detected”. In addition, in the test on ceramidase in B16 cells, the “Action of acidic ceramidase in B16 cells on substrate” value is “hardly” and the “Action of alkaline ceramidase in B16 cells on substrate” value is “acts well”.

Turning to Sphingomyelin, the “Digestion ratio (%)” value with SCDase is on record as 28%. Further, the “Substrate specificity: acting on the substrate, forming the corresponding lysosphingolipid and fatty acid” value in the test with crude SCDase is “Acting on”. Besides, the “Sphingomyelin converted into sphingosylphosphorylcholine” value in the test with Shewanella alga NS-589 is 80%. Moreover, the “Relative activity (%)” value in test [2] is given as 2.9%.

Take `CCCCCCCCCCCCC/C=C/[C@@H](O)[C@H](CO)NC(=O)CCCCCCCCCCCCCCCCC` [N-stearoylsphingosine (C18:0, d18:1), N-stearoylsphingosine]: in test [1] (purified ceramidase), the “Hydrolysis by purified Limulus polyphemus ceramidase (substrate preference)” value is on record as “most efficiently”.

Source of the values: patent publication US6821761B2, “Sphingolipid ceramide N-deacylase, methods for producing sphingolipids and sphingolipid derivatives, and sphingolipid ceramide N-deacylase gene” (Takara Bio, Inc., priority 1994, dated 2004).
